Assay results: US20240374667A1, “Prunella vulgaris extract and use thereof” (Clariant International Ltd, priority 2021, published 2024)

What was measured:
Assay type in all cases: cell-based
[1] = tested on: Human hair follicles; assay: Hair follicle pigmentation, Masson's Fontana staining; conditions: cortisol alone, 5 days
Description: (§1) Human hair follicles were removed from a fresh scalp/face skin biopsy of a person. After the depilation, isolated follicles were selected by microscopic observation to select only ones in anagen phase. They were randomized and placed in supplemented William's E medium (Penicillin/Streptomycin, L-glutamine (2 mM), hydrocortisone (0.027 μM), sodium selenite (10 ng/ml), transferrin (10 μg/ml) and insulin (10 μg/ml) and indicated treatment (control, cortisol at 100 μM, PVE at 50 or 150 ppm in presence or not of cortisol). After overnight fixation in paraformaldehyde solution (MM France, Brignais, France), samples were dehydrated and impregnated in paraffin using a dehydration automat (STP120 ThermoScientific™ Waltham, MA, USA). The Then, sections of […] were mounted on Superfrost® Gold slides before proceeding to Masson's Fontana staining. This staining is used to visualize melanin granules. Melanin is a non-lipid pigment, brown to black, present physiologically in hair, eyes, and skin.

[2] = tested on: Human hair follicles; assay: Hair follicle cell proliferation (Ki-67) and apoptosis (TUNEL) under cortisol; conditions: cortisol alone, five days, vs control
Description: Human hair follicles were removed from a fresh scalp/face skin biopsy of a person. After the depilation, isolated follicles were selected by microscopic observation to select only ones in anagen phase. They were randomized and placed in supplemented William's E medium (Penicillin/Streptomycin, L-glutamine (2 mM), hydrocortisone (0.027 μM), sodium selenite (10 ng/ml), transferrin (10 μg/ml) and insulin (10 μg/ml) and indicated treatment (control, cortisol at 100 μM, PVE at 50 or 150 ppm in presence or not of cortisol). To perform immunostaining, slide deparaffinization was manually conducted using successive baths of solvent. Heat-induced epitope retrieval was performed using the Dako Envision Flex solution (Agilent, Santa Clara, US). Ki-67 (dilution 1/500).Cell proliferation was studied by Ki-67 immunostainings realized on paraffin sections (mouse monoclonal anti-Ki-67, Dako™ M7240, Santa Clara, US), The apoptosis was studied by using click-iT® Plus Alexa 488 TUNEL assay (ThermoScientific™, C10617, Waltham, MA, USA) following supplier instructions. After TUNEL assay and Ki67 antibody incubation, slices were incubated one hour at room temperature with an Alexa 568 coupled secondary antibody (A11004, Thermo Fischer Scientific™, Waltham, MA, USA). Nuclei counterstain was done using Hoechst (Invitrogen, ref H3570) at 1/5000 for 5 minutes at RT. Slides were mounted in aqueous medium.

[3] = tested on: Human hair follicles; assay: Growth of isolated human hair follicles under cortisol (ex vivo culture, 5 days); conditions: cortisol 100 μM alone, day 1 to day 5
Description: Human hair follicles were removed from a fresh scalp/face skin biopsy of a person. After the depilation, isolated follicles were selected by microscopic observation to select only ones in anagen phase. They were randomized and placed in supplemented William's E medium (Penicillin/Streptomycin, L-glutamine (2 mM), hydrocortisone (0.027 μM), sodium selenite (10 ng/ml), transferrin (10 μg/ml) and insulin (10 μg/ml) and indicated treatment (control, cortisol at 100 μM, PVE at 50 or 150 ppm in presence or not of cortisol). Follicles were cultured at 37° C. under 5% CO2 and a relative humidity >95%. Medium was changed at day 1 and 3. The growth of isolated follicles was monitored for 5 days by daily photography using a stereomicroscope device (Carl Zeiss, Microscopy, France). The length of each follicle was measured using ImageJ software.

[4] = tested on: Human hair follicles; assay: Hair follicle structure, HES staining; conditions: cortisol 100 μM alone, 5 days
Description: as §1, with “USA).” for “USA). The”, “Hematoxylin-eosin-saffron (HES)” for “Masson's Fontana”, “Hematoxylin-eosin-saffron (HES)” for “This staining is used to visualize melanin granules. Melanin”, “trichromatic coloration using nuclear, cytoplasmic” for “non-lipid pigment, brown to black, present physiologically in hair, eyes,”, “matrix colorants, usually used for the visualization of tissues.” for “skin.”

[5] = tested on: Human sensory neurons derived from hiPS cells; assay: CGRP release by sensory neurons after cortisol or histamine challenge (ELISA); conditions: for CGRP release by sensory neurons: stress molecule alone at 10 μM, 30 minutes of stimulation, vs control
Description: Human sensory neurons are derived from hiPS cells (human induced Pluripotent Stem cells). hiPS cells are obtained by transfecting human fibroblasts cells. Cells were plated in 96 wells plates coated by a thin layer of Matrigel® (Corning; ref: 354277; batch: 9238002) in a differentiation medium (M1). Cells were incubated at 37° C. and 5% CO2 for 6 days and culture medium was changed every 2 days. After 9 days of differentiation, medium M1 was replaced by a maturation medium for human sensory neurons (M2). Cells were incubated at 37° C. and 5% CO2 for 6 days and culture medium was changed every 2 days. […] H-2700; batch: 1069755) was added. […] Culture was incubated for 24 hours at 37° C. and 5% of CO2. After 2 or 24 hours of incubation, the culture plates were stimulated by cortisol (Sigma Aldrich; ref: H0888; batch: SLB[…]) or histamine, each at 10 μM (Tocris; ref: 3545; batch: 1A/18942). After 30 minutes of stimulation, supernatants were removed and stored at -80° C. The amount of CGRP (antibodies-online; ref: abx257902; batch: E2001551F) released in supernatant after 30 minutes of stimulation were dosed by ELISA and compared to non-treated control. All values were expressed as mean +/-s.e.mean.

[6] = tested on: hair follicles dermal papilla cells (HFDPCs); assay: VEGF secretion by HFDPC under cortisone (ELISA); conditions: cortisone 200 μM alone, 60 h
Description: (§2) 2.3. Evaluation of the ability of PVE to counteract the glucocorticoids-induced decrease proliferation of hair follicles cells and to restore the VEGF secretion HFDP cells were maintained in Follicle Dermal Papilla Cell Growth Medium (C-26501, PromoCell, Heidelberg, Germany) at 37° C., under 5%, CO2. Cells at passage 4 were plated in 24 well plate at 2×10^4 cells/well. HFDPCs at 60% confluence was pretreated with 5, 10 or 20 ppm of PVE for 2 h, and subsequently treated with 200 μM cortisone. After incubation for 60 h, cell culture supernatant was recovered, and secreted VEGF was measured using ELISA kit. For the cell proliferation assay, the WST test was used (EZ-Cytox, DogenBio, Korea). Absorbance was measured at 450 nm wavelength using microplate spectrophotometry.

[7] = tested on: hair follicles dermal papilla cells (HFDPCs); assay: HFDPC proliferation under cortisone (WST test); conditions: cortisone 200 μM alone, 60 h
Description: as §2

[8] = tested on: Human sensory neurons derived from hiPS cells; assay: Oxytocin release by sensory neurons after cortisol or histamine challenge (ELISA); conditions: 2 h pre-incubation
Description: Human sensory neurons are derived from hiPS cells (human induced Pluripotent Stem cells). hiPS cells are obtained by transfecting human fibroblasts cells. Cells were plated in 96 wells plates coated by a thin layer of Matrigel® (Corning; ref: 354277; batch: 9238002) in a differentiation medium (M1). Cells were incubated at 37° C. and 5% CO2 for 6 days and culture medium was changed every 2 days.
After 9 days of differentiation, medium M1 was replaced by a maturation medium for human sensory neurons (M2). Cells were incubated at 37° C. and 5% CO2 for 6 days and culture medium was changed every 2 days. On day 18 of culture (24 hours of pre-incubation) or day 19 of culture (2 hours of pre-incubation,) the medium was removed, and fresh medium with PVE or reference compound β-endorphin (Bachem; ref: H-2700; batch: 1069755) was added. The following conditions were done: control medium, control medium containing PVE at 50, 100 or 150 ppm, control medium containing beta-endorphin at 10 μM. Culture was incubated for 24 hours at 37° C. and 5% of CO2. After 2 or 24 hours of incubation, the culture plates were stimulated by cortisol (Sigma Aldrich; ref: H0888; batch: SLBN5690V) or histamine, each at 10 μM (Tocris; ref: 3545; batch: 1A/18942). After 30 minutes of stimulation, supernatants were removed and stored at −80° C. […]

## C[C@]12CCC(=O)C=C1CC[C@@H]1[C@@H]2[C@@H](O)C[C@@]2(C)[C@H]1CC[C@]2(O)C(=O)CO [cortisol]
[1]
  hair follicle pigmentation (melanin granules): almost all the melanin granules disappeared
[2]
  apoptosis of hair follicle cells (TUNEL): induces apoptosis in cells
  hair follicle cell proliferation (Ki-67): reduced cell proliferation
[3]
  hair follicle growth (length): strongly reduced
[4]
  hair follicle structure (dermal sheath, hair matrix): dramatically altered
[5]
  CGRP release by sensory neurons: strong increase of CGRP release

## C[C@]12CCC(=O)C=C1CC[C@@H]1[C@@H]2C(=O)C[C@@]2(C)[C@H]1CC[C@]2(O)C(=O)CO [cortisone]
[6]
  VEGF secretion by HFDPC: reduced VEGF production
[7]
  HFDPCs proliferation: inhibits the HFDPCs proliferation

## NCCc1c[nH]cn1 [histamine]
[5]
  CGRP release by sensory neurons: strong increase of CGRP release

## β-endorphin (YGGFMTSEKSQTPLVTLFKNAIIKNAYKKGE; Beta-endorphin; UniProt P01189 237-267, looked up)
[5]; 2 h or 24 h pre-incubation, PVE 50, 100 or 150 ppm, beta-endorphin 10 μM, then cortisol 10 μM, 30 minutes
  CGRP release by sensory neurons (sensory neuron excitation): reduce the neuronal excitation at level similar to the control condition
[8]; then cortisol 10 μM challenge
  oxytocin release by sensory neurons: no effect on the oxytocin release
[8]; then histamine 10 μM challenge
  oxytocin release by sensory neurons: no effect on the oxytocin release
